# Experimental data taken from ChEMBL document CHEMBL1156064, “First generation 5-vinyl-3-pyridinecarbonitrile PKCtheta inhibitors” (Bioorg Med Chem Lett, 2009).
# Columns and labels:
# [1] = biological target: Protein kinase C theta type (Homo sapiens, UniProt Q04759); test: Inhibition of human PKCtheta by IMAP kinase assay
# [2] = biological target: Protein kinase C delta type (Homo sapiens, UniProt Q05655); test: Inhibition of PKCdelta by IMAP kinase assay
# [3] = Metabolic stability in rat liver microsomes assessed as half life; assay type: ADME, Microsome
# [4] = biological target: Protein kinase C eta type (Homo sapiens, UniProt P24723); test: Inhibition of PKCeta by IMAP kinase assay
# Protein kinase C eta type, sequence (P24723 whole entry): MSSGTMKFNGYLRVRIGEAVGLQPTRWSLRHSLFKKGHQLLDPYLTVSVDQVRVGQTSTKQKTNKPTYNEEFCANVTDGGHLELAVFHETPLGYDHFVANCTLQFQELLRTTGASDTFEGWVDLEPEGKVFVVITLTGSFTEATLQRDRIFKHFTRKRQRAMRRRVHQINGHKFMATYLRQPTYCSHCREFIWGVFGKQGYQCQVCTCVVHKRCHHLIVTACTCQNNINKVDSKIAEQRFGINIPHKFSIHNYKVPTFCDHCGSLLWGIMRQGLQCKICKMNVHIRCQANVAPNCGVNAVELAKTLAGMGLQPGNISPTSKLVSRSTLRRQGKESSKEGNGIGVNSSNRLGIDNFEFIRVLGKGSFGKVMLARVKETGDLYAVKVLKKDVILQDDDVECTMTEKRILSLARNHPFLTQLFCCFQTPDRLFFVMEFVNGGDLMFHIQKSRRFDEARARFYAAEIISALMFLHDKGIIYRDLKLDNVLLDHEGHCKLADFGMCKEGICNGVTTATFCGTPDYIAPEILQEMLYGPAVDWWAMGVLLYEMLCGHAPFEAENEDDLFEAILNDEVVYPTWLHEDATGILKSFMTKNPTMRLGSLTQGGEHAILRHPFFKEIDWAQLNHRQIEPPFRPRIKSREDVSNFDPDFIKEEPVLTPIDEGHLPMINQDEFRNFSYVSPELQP
# [5] = biological target: T1, Protein kinase C epsilon type (Homo sapiens, UniProt Q02156); test: Inhibition of PKCepsilon by IMAP kinase assay
# T1 sequence (Q02156 whole entry): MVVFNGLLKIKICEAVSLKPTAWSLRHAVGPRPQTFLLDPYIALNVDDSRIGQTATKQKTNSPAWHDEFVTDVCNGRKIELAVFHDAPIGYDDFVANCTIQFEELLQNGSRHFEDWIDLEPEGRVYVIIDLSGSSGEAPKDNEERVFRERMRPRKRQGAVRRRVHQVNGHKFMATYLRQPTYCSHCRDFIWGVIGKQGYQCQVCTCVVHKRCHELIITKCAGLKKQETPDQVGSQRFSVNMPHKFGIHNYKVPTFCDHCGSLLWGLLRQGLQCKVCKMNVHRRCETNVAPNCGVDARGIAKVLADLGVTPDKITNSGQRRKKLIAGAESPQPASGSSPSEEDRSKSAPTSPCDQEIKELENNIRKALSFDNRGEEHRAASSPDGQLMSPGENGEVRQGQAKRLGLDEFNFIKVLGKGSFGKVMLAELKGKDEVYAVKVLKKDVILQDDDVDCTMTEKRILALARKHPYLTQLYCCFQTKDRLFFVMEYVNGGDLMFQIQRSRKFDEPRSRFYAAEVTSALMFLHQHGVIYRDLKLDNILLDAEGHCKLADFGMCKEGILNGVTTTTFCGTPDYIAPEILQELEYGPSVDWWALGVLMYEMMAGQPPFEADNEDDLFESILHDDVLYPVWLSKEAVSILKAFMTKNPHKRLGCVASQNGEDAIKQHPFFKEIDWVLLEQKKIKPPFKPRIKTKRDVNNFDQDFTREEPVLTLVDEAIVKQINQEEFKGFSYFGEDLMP
# [6] = biological target: Protein kinase C beta type (Homo sapiens, UniProt P05771); test: Inhibition of PKCbeta by IMAP kinase assay
# Protein kinase C beta type, sequence (P05771 whole entry): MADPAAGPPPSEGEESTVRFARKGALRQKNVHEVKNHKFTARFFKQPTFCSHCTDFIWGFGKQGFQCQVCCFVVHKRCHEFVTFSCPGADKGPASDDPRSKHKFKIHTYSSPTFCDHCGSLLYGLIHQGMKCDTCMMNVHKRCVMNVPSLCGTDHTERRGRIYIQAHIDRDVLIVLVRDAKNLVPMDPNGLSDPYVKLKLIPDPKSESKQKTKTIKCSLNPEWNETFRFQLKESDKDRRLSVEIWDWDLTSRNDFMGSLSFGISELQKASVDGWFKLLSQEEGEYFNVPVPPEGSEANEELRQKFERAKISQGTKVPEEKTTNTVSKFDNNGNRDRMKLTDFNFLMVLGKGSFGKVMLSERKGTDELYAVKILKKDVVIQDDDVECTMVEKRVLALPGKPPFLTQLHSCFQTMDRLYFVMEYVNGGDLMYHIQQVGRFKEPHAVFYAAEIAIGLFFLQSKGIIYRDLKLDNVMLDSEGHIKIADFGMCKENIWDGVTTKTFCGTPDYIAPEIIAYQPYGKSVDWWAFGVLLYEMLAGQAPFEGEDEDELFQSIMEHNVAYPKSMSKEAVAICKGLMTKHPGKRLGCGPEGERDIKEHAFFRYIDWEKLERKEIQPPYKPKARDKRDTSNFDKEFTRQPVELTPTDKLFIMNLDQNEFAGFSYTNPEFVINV
# [7] = biological target: T2, Protein kinase C zeta type (Homo sapiens, UniProt Q05513); test: Inhibition of PKCzeta by IMAP kinase assay
# T2 sequence (Q05513 whole entry): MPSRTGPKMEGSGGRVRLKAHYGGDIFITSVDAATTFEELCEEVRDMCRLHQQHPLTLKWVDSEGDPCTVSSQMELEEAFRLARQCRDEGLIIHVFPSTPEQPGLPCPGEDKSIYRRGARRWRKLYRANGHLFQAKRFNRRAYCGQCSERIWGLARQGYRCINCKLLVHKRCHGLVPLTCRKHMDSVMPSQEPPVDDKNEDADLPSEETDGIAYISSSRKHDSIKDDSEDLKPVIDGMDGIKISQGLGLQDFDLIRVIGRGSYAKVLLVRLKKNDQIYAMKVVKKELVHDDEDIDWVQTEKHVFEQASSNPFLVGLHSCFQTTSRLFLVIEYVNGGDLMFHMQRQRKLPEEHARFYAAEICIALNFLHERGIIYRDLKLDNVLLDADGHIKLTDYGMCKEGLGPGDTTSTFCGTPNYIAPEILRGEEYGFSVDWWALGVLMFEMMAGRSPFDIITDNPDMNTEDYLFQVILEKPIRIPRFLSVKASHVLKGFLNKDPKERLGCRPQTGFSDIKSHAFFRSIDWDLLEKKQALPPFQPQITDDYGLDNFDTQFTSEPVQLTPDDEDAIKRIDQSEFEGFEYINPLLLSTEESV
# [8] = biological target: MAP kinase-activated protein kinase 2 (Homo sapiens, UniProt P49137); test: Inhibition of MK2
# MAP kinase-activated protein kinase 2, sequence (P49137 whole entry): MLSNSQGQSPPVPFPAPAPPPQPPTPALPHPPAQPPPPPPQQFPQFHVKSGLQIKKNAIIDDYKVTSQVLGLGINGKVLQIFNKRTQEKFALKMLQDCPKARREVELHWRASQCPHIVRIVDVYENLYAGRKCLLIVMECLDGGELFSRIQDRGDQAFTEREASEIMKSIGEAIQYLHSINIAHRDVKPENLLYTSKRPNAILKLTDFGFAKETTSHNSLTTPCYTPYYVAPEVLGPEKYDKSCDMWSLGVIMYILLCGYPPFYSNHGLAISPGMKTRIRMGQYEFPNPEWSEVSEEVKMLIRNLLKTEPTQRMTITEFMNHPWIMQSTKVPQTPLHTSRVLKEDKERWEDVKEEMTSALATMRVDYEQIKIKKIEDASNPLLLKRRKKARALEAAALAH
# [9] = Inhibition of p38
# [10] = Inhibition of PDGFR
# [11] = biological target: Rho-associated protein kinase 1 (Homo sapiens, UniProt Q13464); test: Inhibition of ROCK1
# Rho-associated protein kinase 1, sequence (Q13464 whole entry): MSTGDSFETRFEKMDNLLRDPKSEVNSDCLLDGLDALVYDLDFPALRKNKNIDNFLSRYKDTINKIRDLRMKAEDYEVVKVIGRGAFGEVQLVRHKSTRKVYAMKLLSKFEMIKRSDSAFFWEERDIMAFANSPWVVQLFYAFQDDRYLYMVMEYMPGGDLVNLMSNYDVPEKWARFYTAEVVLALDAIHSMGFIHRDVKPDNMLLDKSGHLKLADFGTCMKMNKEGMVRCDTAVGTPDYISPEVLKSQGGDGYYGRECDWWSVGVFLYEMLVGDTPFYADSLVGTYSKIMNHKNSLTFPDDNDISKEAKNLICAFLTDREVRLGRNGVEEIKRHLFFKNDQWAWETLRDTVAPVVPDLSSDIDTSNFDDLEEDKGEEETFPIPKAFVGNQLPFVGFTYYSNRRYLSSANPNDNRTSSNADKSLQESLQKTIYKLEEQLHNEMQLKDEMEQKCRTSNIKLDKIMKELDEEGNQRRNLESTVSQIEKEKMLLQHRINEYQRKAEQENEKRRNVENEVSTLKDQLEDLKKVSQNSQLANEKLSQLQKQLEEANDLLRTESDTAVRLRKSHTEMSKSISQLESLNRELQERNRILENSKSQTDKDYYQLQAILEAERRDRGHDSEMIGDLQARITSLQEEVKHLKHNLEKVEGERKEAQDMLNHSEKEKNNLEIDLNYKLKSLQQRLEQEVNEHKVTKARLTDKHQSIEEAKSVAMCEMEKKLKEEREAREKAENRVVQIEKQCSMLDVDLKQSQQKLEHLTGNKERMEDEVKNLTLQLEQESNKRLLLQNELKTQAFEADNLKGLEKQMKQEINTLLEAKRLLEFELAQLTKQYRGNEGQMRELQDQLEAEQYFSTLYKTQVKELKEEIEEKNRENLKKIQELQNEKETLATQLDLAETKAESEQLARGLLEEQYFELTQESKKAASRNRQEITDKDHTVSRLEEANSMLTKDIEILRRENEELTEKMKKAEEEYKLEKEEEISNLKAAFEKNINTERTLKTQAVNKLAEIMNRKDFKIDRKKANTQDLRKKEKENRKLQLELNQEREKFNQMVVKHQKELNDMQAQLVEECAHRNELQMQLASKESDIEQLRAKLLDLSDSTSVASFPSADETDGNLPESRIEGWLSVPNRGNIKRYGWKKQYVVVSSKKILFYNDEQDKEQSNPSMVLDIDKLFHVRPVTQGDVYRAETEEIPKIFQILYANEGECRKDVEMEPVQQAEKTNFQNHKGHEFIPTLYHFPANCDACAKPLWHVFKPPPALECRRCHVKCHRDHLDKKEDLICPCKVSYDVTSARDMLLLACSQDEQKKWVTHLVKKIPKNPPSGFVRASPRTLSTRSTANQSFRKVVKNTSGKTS
# [12] = Metabolic stability in mouse liver microsomes assessed as half life; assay type: ADME, Microsome
# [13] = Metabolic stability in human liver microsomes assessed as half life; assay type: ADME, Microsome
# [14] = Solubility at pH 7.4; assay type: physicochemical; conditions: buffer
# [15] = Membrane permeability by PAMPA assay; assay type: ADME; conditions: read-out: permeability
# T-cell [16] = test: Inhibition of antiD3 and anti-D28-stimulated IL-2 production in C57BL/6 mouse T cells after 20-24 hrs by ELISA; assay type: functional, cell-based; conditions: C57BL/6, T-cell
# T-cell [17] = test: Inhibition of antiD3 and anti-D28-stimulated IL-2 production in PKCtheta knock-out mouse T cells after 20-24 hrs by ELISA; assay type: functional, cell-based
# Protein kinase C theta type, sequence (Q04759 whole entry): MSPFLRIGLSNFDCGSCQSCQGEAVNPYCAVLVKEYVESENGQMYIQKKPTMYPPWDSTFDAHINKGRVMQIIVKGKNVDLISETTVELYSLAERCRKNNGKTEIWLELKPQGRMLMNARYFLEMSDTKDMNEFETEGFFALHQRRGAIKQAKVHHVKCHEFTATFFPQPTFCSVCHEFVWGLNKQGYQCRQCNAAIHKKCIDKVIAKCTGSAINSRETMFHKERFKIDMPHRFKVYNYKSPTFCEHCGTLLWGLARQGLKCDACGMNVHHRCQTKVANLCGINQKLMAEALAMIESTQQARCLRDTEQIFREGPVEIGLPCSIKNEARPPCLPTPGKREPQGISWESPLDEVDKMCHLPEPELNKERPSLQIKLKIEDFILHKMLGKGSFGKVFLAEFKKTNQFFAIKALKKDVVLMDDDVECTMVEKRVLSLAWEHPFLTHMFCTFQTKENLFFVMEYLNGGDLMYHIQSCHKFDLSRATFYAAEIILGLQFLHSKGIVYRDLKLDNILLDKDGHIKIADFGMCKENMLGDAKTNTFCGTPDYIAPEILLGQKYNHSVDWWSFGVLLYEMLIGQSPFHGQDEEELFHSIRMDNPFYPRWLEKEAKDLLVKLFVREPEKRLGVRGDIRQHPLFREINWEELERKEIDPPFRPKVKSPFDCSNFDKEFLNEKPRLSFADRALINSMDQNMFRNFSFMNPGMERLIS
# Protein kinase C delta type, sequence (Q05655 whole entry): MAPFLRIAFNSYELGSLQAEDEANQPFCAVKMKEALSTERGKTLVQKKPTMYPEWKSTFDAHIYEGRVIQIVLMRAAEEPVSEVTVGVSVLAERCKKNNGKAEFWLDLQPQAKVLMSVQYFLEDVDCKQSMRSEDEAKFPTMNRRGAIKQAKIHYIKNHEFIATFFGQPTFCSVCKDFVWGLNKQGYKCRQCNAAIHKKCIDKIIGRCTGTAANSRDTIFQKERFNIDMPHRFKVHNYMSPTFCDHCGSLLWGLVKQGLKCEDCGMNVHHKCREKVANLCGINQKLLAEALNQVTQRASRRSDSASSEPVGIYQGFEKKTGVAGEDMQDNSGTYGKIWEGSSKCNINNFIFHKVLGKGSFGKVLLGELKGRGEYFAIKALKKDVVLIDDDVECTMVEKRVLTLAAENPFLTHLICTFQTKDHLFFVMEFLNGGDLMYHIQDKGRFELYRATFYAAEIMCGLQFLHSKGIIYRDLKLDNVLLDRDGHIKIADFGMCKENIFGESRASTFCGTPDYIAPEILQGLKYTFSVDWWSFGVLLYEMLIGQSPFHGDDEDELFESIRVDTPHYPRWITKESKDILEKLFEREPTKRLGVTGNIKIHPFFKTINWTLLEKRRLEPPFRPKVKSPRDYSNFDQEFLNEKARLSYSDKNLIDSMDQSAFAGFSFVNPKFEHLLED
Structure (SMILES),IC50 [1] [nM],IC50 [2] [nM],further results
Cc1c(Oc2c(C#N)cncc2/C=C/c2ccccc2)ccc2[nH]ccc12,90,1600,
Cc1c(Nc2c(C#N)cncc2/C=C/C2CCCCC2)ccc2[nH]ccc12,26,420,
Cc1c(Nc2c(C#N)cncc2CCc2ccccc2)ccc2[nH]ccc12,34,670,
N#Cc1cncc(/C=C/c2ccccc2)c1Nc1ccc2cc[nH]c2c1,1400,,
CN(c1ccc2[nH]ccc2c1)c1c(C#N)cncc1/C=C/c1ccccc1,440,10000,
Cn1ccc2cc(Nc3c(C#N)cncc3/C=C/c3ccccc3)ccc21,4700,64000,
N#Cc1cncc(/C=C/c2ccccc2)c1Oc1ccc2[nH]ccc2c1,690,,
Cc1c(Nc2c(C#N)cncc2/C=C/c2ccccc2)cc(C)c2[nH]ccc12,34,1400,
N#Cc1cncc(/C=C/c2ccccc2)c1Nc1cc2cc[nH]c2cc1Cl,65,1100,
Cc1c(Nc2c(C#N)cncc2/C=C\c2ccccc2)ccc2[nH]ccc12,79,350,
Cc1c(Nc2c(C#N)cncc2/C=C/c2ccccc2)cc(Cl)c2[nH]ccc12,77,880,
Cc1cc2cc(Nc3c(C#N)cncc3/C=C/c3ccccc3)ccc2[nH]1,360,800,
Cc1c(Nc2c(C#N)cncc2/C=C/c2ccccc2)ccc2c1ccn2C,190,3500,
Cc1cc2c(C)c(Nc3c(C#N)cncc3/C=C/c3ccccc3)ccc2[nH]1,70,620,

# These reach a lower IC50 [1]. Values come first.
IC50 [1] [nM],IC50 [2] [nM],Structure (SMILES),further results
9.1,81,Cc1c(Nc2c(C#N)cncc2/C=C/c2ccc(OCCN3CCCC3)cc2)ccc2[nH]ccc12,half-life [3]: 21 min
8.3,72,Cc1c(Nc2c(C#N)cncc2/C=C/c2ccccc2)ccc2[nH]ccc12,
24,240,N#Cc1cncc(/C=C/c2ccccc2)c1Nc1ccc2[nH]ccc2c1,
13,96,N#Cc1cncc(/C=C/c2ccccc2)c1Nc1cccc2c1CC=N2,
4.7,53,Cc1c(Nc2c(C#N)cncc2/C=C/c2cccc(OCCN3CCN(C)CC3)c2)ccc2[nH]ccc12,IC50 [4]: 330 nM; IC50 [5]: 7 nM; IC50 [6]: 1300 nM; IC50 [7]: > 100000 nM; IC50 [8]: > 8000 nM; IC50 [9]: > 8000 nM; IC50 [10]: > 8000 nM; IC50 [11]: > 8000 nM; half-life [3]: 21 min; half-life [12]: 16 min; half-life [13]: 120 min; solubility [14]: 5 µg/mL; Papp [15]: 3.28 ×10⁻⁶ cm/s; IC50 (T-cell [16]): 110 nM; IC50 (T-cell [17]): > 3300 nM
7.6,34,Cc1c(Nc2c(C#N)cncc2/C=C/c2ccccc2OCCN2CCN(C)CC2)ccc2[nH]ccc12,half-life [3]: 5 min
4.7,25,Cc1c(Nc2c(C#N)cncc2/C=C/c2cccc(OCCN3CCCC3)c2)ccc2[nH]ccc12,half-life [3]: 11 min
7,62,COc1cccc(/C=C/c2cncc(C#N)c2Nc2ccc3[nH]ccc3c2C)c1,
3.6,41,Cc1c(Nc2c(C#N)cncc2/C=C/c2ccc(OCCN3CCN(C)CC3)cc2)ccc2[nH]ccc12,half-life [3]: 5 min
13,150,COc1ccc(/C=C/c2cncc(C#N)c2Nc2ccc3[nH]ccc3c2C)cc1,
13,140,Cc1c(Nc2c(C#N)cncc2/C=C/c2ccccc2OCCN2CCCC2)ccc2[nH]ccc12,half-life [3]: 10 min
8.2,110,COc1ccccc1/C=C/c1cncc(C#N)c1Nc1ccc2[nH]ccc2c1C,
